According to patent US20060051295A1, “Estrogen receptor interaction with a transcription factor” (priority 2002, published 2006):

How the values were obtained:
IL-6 production = test: IL-6 secretion by U-2OS cells stably expressing ERα (sandwich ELISA); format: cell-based, human; settings: U-2OS-ERα, IL-1β 125 pg/ml + IFNγ 10 ng/ml
Source text: Estrogens maintain the balance between bone resorption and formation by inhibiting the production of cytokines by osteoblasts that stimulate osteoclast activity and thus bone resorption. We analysed the relevance of ER NF-κB transrepression on IL-6 production in more depth. When the pre-osteoblast cell line U-2 OS was stimulated with cytokines such as IL-1β, production of endogenous IL-6 protein is increased. However, when U-2OS cells are also exposed to IL-1β and estrogens, the increased production of IL-6 is repressed [Table 8].
Numbers are luminescence in counts per sec reflecting IL-6 produced by the cells
Secretion of endogenously produced IL-6 was measured by sandwich ELISA as outlined in Material and Methods.
For studying repression of human IL-6 secreted by U-2 OS cells that stably overexpress ERα (U-2 OS-ERα cells) a standard sandwich ELISA was used (ELISA kit of R&D systems #DY206). Cells were plated in 24 or 96 wells plates in M505+dextran-coated charcoal stripped serum (i.e. 10% BCTS) and allowed to grow to 90% confluency.
ELISA was performed according to the protocol of the manufacturer and as briefly described below. After overnight incubation of the cells with compounds in the appropriate concentration, the supernatants were transferred to 96 wells plates that had been coated overnight with anti-IL-6 capture antibody. Captured IL-6 was subsequently detected using a biotinylated anti-IL-6 detection antibody and Streptavidin-AP. Il-6 concentrations per well were subsequently quantified using the chemoluminescent substrate CSPD (Elisa-Light™, #EL100CY, Tropix), after which luminescence was determined in a Victor multilabel counter (Wallac).

cRel + ER beta = test: Transrepression of c-Rel induced reporters, U-2 OS co-transfected with ERβ; format: cell-based, human
Experimental: Next was determined whether transrepression by ER is limited to particular NF-κB types, such as c-Rel or RelA, by overexpression of these NF-κB proteins in U-2 OS cells (Table 2). Again, the promoter-reporter constructs for the E-selectin, ICAM and VCAM genes were used in these experiments. Significant activation of these reporters by overexpression of c-Rel was observed. This activation was strongly and reproducibly transrepressed by both ERα and ERβ (Table 2).
Table 2. Estrogen-dependent transrepression of the promoters from E-selectin, VCAM and ICAM and a synthetic NF-κB responsive reporter, measured as the amount of luciferase activity. Transient (co-)transfections of ERα (or ERβ) and reporter were performed in U-2 OS cells. Reporter activity was induced by cellular exposure to Il-1β or by co-transfection of the NF-κB genes c-Rel or RelA. […] For detailed information on the composition of the reporters used, see appendix 1. The hyphen (-) in the table indicates the test with cells without transfected cDNA and no additives in medium; n.d. means: not determined.
(§1) For transient transfections, cells were seeded in 6-well plates (2.10^5 cells/well). After two or three days the cells were transfected with reporter, expression vectors and β-galactosidase control vector. Two different experimental settings were used. For testing transrepression of IL-1β induced promoter activity, cells were transfected with 1 μg reporter construct, 1 μg expression vector (containing either ERα, ERβ or GR), and 0.25 μg of β-galactosidase control plasmid. For testing transrepression in combination with c-Rel or ReLA overexpression, cells were transfected with 1 μg reporter construct, 1 μg expression vector (containing either ERα, ERβ or GR) and 0.1 or 1.0 μg expression vector containing c-Rel or RelA and 0.25 μg of β-galactosidase control vector. Equivalent amounts of DNA were obtained by adding the appropriate expression vector that lacks an insert. Transient transfection was performed using lipofectin reagent (Life Technologies). […] The transfected cells were incubated overnight with test compounds prior to cell lysis. Measurement of luciferase and P-galactosidase activity were performed using respectively the luciferase assay system (Promega) and Galacto-light plus (Tropix) according to the manufacturers' protocols and measured on the Victor 1420 multilabel counter, Wallac. Detection of β-galactosidase activity was used as a control for transfection efficiency.

IL-6 promoter = IL-6 promoter reporter in U-2 OS with ERα and NF-κB proteins / c/EBPβ; format: cell-based, human
Experimental: To determine the role of functional ERα/c-Rel interactions in repression of IL-6 production by estrogens, we analysed the effect of various combinations of ERα and NF-κB proteins on IL-6 production using a reporter construct containing the promoter of the IL-6 gene.
as §1, with “Wallac.” for “Wallac. Detection of β-galactosidase activity was used as a control for transfection efficiency.”

[1] = test system: E-selectin (ELAM) gene expression; test: Rabbit atherogenic diet model, E-selectin mRNA in aorta bow (RNase protection)

`C[C@]12CC[C@@H]3c4ccc(O)cc4CC[C@H]3[C@@H]1CC[C@@H]2O` [Org E2, 17β-estradiol] was tested, and the “Il-6 production (luminescence)” value (IL-6 production; E2 0.001 nM) was 136039 counts per sec, the “Il-6 production (luminescence)” value (IL-6 production; E2 0.01 nM) was 79230 counts per sec and the “Il-6 production (luminescence)” value (IL-6 production; E2 0.1 nM) was 50375 counts per sec. For the same compound, the “Il-6 production (luminescence)” value (IL-6 production; E2 1 nM) was 41070 counts per sec, the “luciferase activity, ELAM+ reporter” value (cRel + ER beta) was 3708 and the “luciferase activity, ELAM− reporter” value (cRel + ER beta) was 1495. The “luciferase activity, ICAM reporter” value (cRel + ER beta) was 1611, the “luciferase activity, VCAM reporter” value (cRel + ER beta) was 882 and the “luciferase activity, IL-6 promoter reporter” value (IL-6 promoter; ERα + C/EBPβ) was 2585. For the same compound, the “luciferase activity, IL-6 promoter reporter” value (IL-6 promoter; ERα + RelA) was 19401, the “luciferase activity, IL-6 promoter reporter” value (IL-6 promoter; ERα + RelA + c/EBPβ) was 92837 and the “luciferase activity, IL-6 promoter reporter” value (IL-6 promoter; ERα + RelA + p50) was 8232. For the same compound, the “luciferase activity, IL-6 promoter reporter” value (IL-6 promoter; ERα + c/EBPβ + p50) was 1724, the “luciferase activity, IL-6 promoter reporter” value (IL-6 promoter; ERα + cRel) was 1807 and the “luciferase activity, IL-6 promoter reporter” value (IL-6 promoter; ERα + cRel + RelA) was 23381. For the same compound, the “luciferase activity, IL-6 promoter reporter” value (IL-6 promoter; ERα + cRel + c/EBPβ) was 6459, the “luciferase activity, IL-6 promoter reporter” value (IL-6 promoter; ERα + cRel + p50) was 1814 and the “luciferase activity, IL-6 promoter reporter” value (IL-6 promoter; ERα + p50) was 1447. For the same compound, the “luciferase activity, IL-6 promoter reporter” value (IL-6 promoter; ERα, no NF-κB protein) was 1310, the “ELAM mRNA level (RNase protection, divided by GAPDH signal)” value ([1]; diet 2 weeks, 4 hours after 3 μg/kg s.c.) was 0 and the “ELAM mRNA level (RNase protection, divided by GAPDH signal)” value ([1]; diet 2 weeks, 12 hours after 3 μg/kg s.c.) was 0.0003897. For the same compound, the “ELAM mRNA level (RNase protection, divided by GAPDH signal)” value ([1]; diet 4 weeks, 12 hours after 3 μg/kg s.c.) was 0, the “ELAM mRNA level (RNase protection, divided by GAPDH signal)” value ([1]; diet 8 weeks, 4 hours after 3 μg/kg s.c.) was 0.0006813 and the “ELAM mRNA level (RNase protection, divided by GAPDH signal)” value ([1]; diet 18 weeks, 4 hours after 3 μg/kg s.c.) was 0.002788. The “ELAM mRNA level (RNase protection, divided by GAPDH signal)” value ([1]; diet 18 weeks, 12 hours after 3 μg/kg s.c.) was 0.0008307.
